Values joined by “and” are separate entries in the source; they are usually repeats but may differ in a detail not shown here. Equal values may be shown once. Where no end group is shown, it is not given here.
Tests used:
[1] = tested on: female mice (BKS.Cg-Dock7m+/+Leptin db/db BLKS); assay: Effect of an IL-4 derived peptide on body weight in db/db mice; format: in vivo; conditions: for Effect on weight / weight gain compared to vehicle: treatment group vs vehicle/placebo group, 77 days s.c. once daily
Method: 30 female mice (BKS.Cg-Dock7m+/+Leptin db/db BLKS, 5 weeks of age) were transferred to the Gubra Research animal unit in Denmark. Throughout the habituation and study period, the animals were housed in a light-, temperature-, and -humidity-controlled room with free access to food and water. All animal experiments were conducted in accordance with Gubra bioethical guidelines, which are fully compliant with internationally accepted principles for the care and use of laboratory animals. The body weight of the animals was recorded at the start of the study (baseline), on day 13, day 27, day 34, day 43, day 60 and day 77 (termination of study).
Compound A was prepared using standard solid phase peptide synthesis (SPPS) procedures. Compound A was provided by Phlogo ApS, Copenhagen, Denmark (10 mg/ml miliQ water diluted to the dose formulations). Vehicle was miliQ:PBS 1:5.
The mice were randomized into a vehicle group (n=15) and a 10 mg/kg Compound A (n=15). The compound as well as the vehicle was administered subcutaneously once daily. On day 27, the dose was lowered to 5 mg/kg Compound A (n=15), and on day 43, the dose was lowered to 2.5 mg/kg Compound A (n=15).

macrophages = conditions: cited from earlier work
type II IL-4R = target: T1, type II IL-4R (Homo sapiens, UniProt P24394); conditions: cited from earlier work
T1 sequence (P24394 26-825): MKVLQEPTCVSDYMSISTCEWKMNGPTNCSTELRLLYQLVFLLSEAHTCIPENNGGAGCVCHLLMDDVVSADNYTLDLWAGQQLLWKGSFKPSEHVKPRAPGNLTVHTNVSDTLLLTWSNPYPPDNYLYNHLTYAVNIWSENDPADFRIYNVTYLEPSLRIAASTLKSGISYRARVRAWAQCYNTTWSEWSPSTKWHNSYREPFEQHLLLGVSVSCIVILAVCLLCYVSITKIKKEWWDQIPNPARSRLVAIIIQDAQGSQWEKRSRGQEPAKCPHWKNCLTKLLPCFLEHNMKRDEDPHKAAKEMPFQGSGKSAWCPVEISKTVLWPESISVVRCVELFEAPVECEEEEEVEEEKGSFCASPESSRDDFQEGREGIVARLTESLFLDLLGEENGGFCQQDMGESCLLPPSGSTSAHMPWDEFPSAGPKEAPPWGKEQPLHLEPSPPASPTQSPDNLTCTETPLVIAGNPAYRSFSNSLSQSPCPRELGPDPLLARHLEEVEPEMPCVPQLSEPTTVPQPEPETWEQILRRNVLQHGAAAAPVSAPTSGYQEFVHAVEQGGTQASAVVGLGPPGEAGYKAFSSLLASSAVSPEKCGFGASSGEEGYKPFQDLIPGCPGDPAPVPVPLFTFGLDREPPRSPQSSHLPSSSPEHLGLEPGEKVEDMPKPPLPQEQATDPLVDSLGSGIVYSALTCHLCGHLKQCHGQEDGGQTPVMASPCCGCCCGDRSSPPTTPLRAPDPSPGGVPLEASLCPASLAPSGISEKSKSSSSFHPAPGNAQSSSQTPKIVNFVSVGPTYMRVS

IL-4 receptors = target: T2, IL-4 receptors (Homo sapiens, UniProt P24394); conditions: cited from earlier work
T2 sequence (P24394 26-825): T1 sequence (P24394 26-825)

type I IL-4R = target: T3, type I IL-4R (Homo sapiens, UniProt P24394); conditions: cited from earlier work
T3 sequence (P24394 26-825): T1 sequence (P24394 26-825)

Substance	Δ Weight ([1]; individual animals 1-15 of treatment group, day 77 minus baseline, s.c. once daily, 10 then 5 then 2.5 mg/kg)	Weight at day 77 ([1]; individual animals 1-15 of treatment group, s.c. once daily, 10 mg/kg, lowered to 5 mg/kg on day 27 and 2.5 mg/kg on day 43, day 77)	Δ Weight (g), mean ([1]; mean of treatment group (n=15), baseline to day 77, s.c. once daily, 10 then 5 then 2.5 mg/kg, placebo mean 5.76) [g]	Weight at day 77 (g), mean ([1]; mean of treatment group (n=15), s.c. once daily, 10 then 5 then 2.5 mg/kg, placebo mean 50.64) [g]	Weight increase during the study period ([1]; treatment group average, baseline to day 77, placebo 12.8%) [%]	Effect on weight / weight gain compared to vehicle [1]	Effect on weight / weight gain compared to vehicle ([1]; listed as compound A)	Macrophage activation (macrophages)	Activity on type II IL-4R (type II IL-4R)	Binding to the IL-4 receptors (IL-4 receptors)	Activity on type I IL-4R (type I IL-4R)
Compound A: dimer of SEQ ID NO:1 (AQFHRHKQLIRFLKRA) connected through a linker (lysine-beta-alanine) at the C-terminals (also: dimer of two chains joined at the C-termini through a Lys-βAla linker)	1.80 g and -1.60 g and 7.30 g and 4.40 g and 4.50 g and 2.70 g and -1.90 g and 8.00 g and 4.20 g and 11.20 g and 11.40 g and 3.20 g and -1.30 g and 0.90 g and 1.40 g	54.30 g (2×) and 47.30 g and 48.40 g and 52.50 g and 59.10 g and 47.60 g and 37.50 g and 57.30 g and 51.80 g and 58.10 g and 59.40 g and 52.40 g and 49.20 g and 49.40 g	3.51	48.66	7.8	significantly decreased the weight	decreased the weight gain				
AQFHRHKQLIRFLKRA [SEQ ID NO:1, 16-residue IL-4 derived peptide, variant of AA71-AA86 of IL-4]								inhibiting macrophage activation	antagonist	capable of binding to the IL-4 receptors	high affinity partial agonist

Reference: patent US12378294B2, “IL-4 derived peptides for use in the treatment of obesity” (SERODUS APS, priority 2022, dated 2025)
